# From patent US20170087149A9, “TREATMENT FOR […]” (priority 2013, published 2017)
# System: collapsing trachea
# Experiment: Treatment of collapsing trachea in dogs (case reports)
# Assay type: in vivo, dog
# Settings: Pomeranian
# Description: Upon presentation, the patient had severe dyspnea and coughing.
# Oxycodone sustained release was prescribed, 10 mg twice daily. […] When appetite returned (along with resumed coughing) the patient's dosage was adjusted to 2.5 mg twice daily (cutting the 10 mg tablets in quarters). […] On two occasions when the beginning of a cough was observed, a single additional 2.5 mg tablet was administered, followed by return to the original twice-daily dosing regimen.
# The treatment described in Example 1 has been successfully repeated in two additional dogs diagnosed as having collapsing trachea.
compound,measurement,setting,value
"O=C(O)C(O)C(O)C(=O)O.Oc1ccc2c(c1)[C@@]13CCCC[C@@]1(O)[C@@H](C2)N(CC1CCC1)CC3 [Torbutrol, butorphenol]","cough (prior treatment, history)",history before presentation,had been controlling the cough
same,"exercise tolerance and panting (prior treatment, history)",history before presentation,highly intolerant to exercise (to the point of having to be carried) and continuously panting
same,response at presentation (refractory stage),severe intrathoracic collapsing trachea at presentation,stopped responding
